Calls of active or inactive are those of the source. The calls are words filed in the database; no cut-off is given here.
What was measured:
NCI-H322M = assay: Growth inhibition of human NCI-H322M cells assessed as cell growth at 10 uM incubated for 48 hrs by sulforhodamine B assay; type: functional; details: read-out: Activity
PC-3 = assay: Growth inhibition of human PC3 cells assessed as cell growth at 10 uM incubated for 48 hrs by sulforhodamine B assay; type: functional; details: PC-3, 48 h, read-out: Activity
NCI-H522 = assay: Growth inhibition of human NCI-H522 cells assessed as cell growth at 10 uM incubated for 48 hrs by sulforhodamine B assay; type: functional; details: NCI-H522, 48 h, read-out: Activity
DU-145 = assay: Growth inhibition of human DU145 cells assessed as cell growth at 10 uM incubated for 48 hrs by sulforhodamine B assay; type: functional; details: DU-145, 48 h, read-out: Activity
LOX IMVI = assay: Growth inhibition of human LOXIMVI cells assessed as cell growth at 10 uM incubated for 48 hrs by sulforhodamine B assay; type: functional; details: read-out: Activity
MDA-MB-435 = assay: Growth inhibition of human MDA-MB-435 cells assessed as cell growth at 10 uM incubated for 48 hrs by sulforhodamine B assay; type: functional; details: MDA-MB-435, 48 h, read-out: Activity
U-251 = assay: Growth inhibition of human U251 cells assessed as cell growth at 10 uM incubated for 48 hrs by sulforhodamine B assay; type: functional; details: U-251, 48 h, read-out: Activity
SF-539 = assay: Growth inhibition of human SF539 cells assessed as cell growth at 10 uM incubated for 48 hrs by sulforhodamine B assay; type: functional; details: SF-539, 48 h, read-out: Activity
[1] = target: Serine-protein kinase ATM (Homo sapiens) (UniProt Q13315); assay: Inhibition of ATM in human U2OS cells assessed as reduction in hydroxyurea-induced Chk-2 phosphorylation at Thr68 residue at 10 uM preincubated for 1 hr followed by hydroxyurea challenge measured after 1 hr by Western blot analysis; type: cell-based
SF-268 = assay: Growth inhibition of human SF268 cells assessed as cell growth at 10 uM incubated for 48 hrs by sulforhodamine B assay; type: functional; details: SF-268, 48 h, read-out: Activity
HOP-62 = assay: Growth inhibition of human HOP62 cells assessed as cell growth at 10 uM incubated for 48 hrs by sulforhodamine B assay; type: functional; details: HOP-62, 48 h, read-out: Activity
[2] = target: Serine/threonine-protein kinase ATR (Homo sapiens) (UniProt Q13535); assay: Inhibition of ATR in human U2OS cells assessed as reduction in hydroxyurea-induced Chk-1 phosphorylation at Ser345 residue by measuring ratio of GAPDH level to phosphorylated Chk-1 level at 3 uM preincubated for 1 hr followed by hydroxyurea challenge measured after 2 hrs by Western blot analysis; type: cell-based
Chain of Serine/threonine-protein kinase ATR (Homo sapiens) (Q13535 whole entry, looked up): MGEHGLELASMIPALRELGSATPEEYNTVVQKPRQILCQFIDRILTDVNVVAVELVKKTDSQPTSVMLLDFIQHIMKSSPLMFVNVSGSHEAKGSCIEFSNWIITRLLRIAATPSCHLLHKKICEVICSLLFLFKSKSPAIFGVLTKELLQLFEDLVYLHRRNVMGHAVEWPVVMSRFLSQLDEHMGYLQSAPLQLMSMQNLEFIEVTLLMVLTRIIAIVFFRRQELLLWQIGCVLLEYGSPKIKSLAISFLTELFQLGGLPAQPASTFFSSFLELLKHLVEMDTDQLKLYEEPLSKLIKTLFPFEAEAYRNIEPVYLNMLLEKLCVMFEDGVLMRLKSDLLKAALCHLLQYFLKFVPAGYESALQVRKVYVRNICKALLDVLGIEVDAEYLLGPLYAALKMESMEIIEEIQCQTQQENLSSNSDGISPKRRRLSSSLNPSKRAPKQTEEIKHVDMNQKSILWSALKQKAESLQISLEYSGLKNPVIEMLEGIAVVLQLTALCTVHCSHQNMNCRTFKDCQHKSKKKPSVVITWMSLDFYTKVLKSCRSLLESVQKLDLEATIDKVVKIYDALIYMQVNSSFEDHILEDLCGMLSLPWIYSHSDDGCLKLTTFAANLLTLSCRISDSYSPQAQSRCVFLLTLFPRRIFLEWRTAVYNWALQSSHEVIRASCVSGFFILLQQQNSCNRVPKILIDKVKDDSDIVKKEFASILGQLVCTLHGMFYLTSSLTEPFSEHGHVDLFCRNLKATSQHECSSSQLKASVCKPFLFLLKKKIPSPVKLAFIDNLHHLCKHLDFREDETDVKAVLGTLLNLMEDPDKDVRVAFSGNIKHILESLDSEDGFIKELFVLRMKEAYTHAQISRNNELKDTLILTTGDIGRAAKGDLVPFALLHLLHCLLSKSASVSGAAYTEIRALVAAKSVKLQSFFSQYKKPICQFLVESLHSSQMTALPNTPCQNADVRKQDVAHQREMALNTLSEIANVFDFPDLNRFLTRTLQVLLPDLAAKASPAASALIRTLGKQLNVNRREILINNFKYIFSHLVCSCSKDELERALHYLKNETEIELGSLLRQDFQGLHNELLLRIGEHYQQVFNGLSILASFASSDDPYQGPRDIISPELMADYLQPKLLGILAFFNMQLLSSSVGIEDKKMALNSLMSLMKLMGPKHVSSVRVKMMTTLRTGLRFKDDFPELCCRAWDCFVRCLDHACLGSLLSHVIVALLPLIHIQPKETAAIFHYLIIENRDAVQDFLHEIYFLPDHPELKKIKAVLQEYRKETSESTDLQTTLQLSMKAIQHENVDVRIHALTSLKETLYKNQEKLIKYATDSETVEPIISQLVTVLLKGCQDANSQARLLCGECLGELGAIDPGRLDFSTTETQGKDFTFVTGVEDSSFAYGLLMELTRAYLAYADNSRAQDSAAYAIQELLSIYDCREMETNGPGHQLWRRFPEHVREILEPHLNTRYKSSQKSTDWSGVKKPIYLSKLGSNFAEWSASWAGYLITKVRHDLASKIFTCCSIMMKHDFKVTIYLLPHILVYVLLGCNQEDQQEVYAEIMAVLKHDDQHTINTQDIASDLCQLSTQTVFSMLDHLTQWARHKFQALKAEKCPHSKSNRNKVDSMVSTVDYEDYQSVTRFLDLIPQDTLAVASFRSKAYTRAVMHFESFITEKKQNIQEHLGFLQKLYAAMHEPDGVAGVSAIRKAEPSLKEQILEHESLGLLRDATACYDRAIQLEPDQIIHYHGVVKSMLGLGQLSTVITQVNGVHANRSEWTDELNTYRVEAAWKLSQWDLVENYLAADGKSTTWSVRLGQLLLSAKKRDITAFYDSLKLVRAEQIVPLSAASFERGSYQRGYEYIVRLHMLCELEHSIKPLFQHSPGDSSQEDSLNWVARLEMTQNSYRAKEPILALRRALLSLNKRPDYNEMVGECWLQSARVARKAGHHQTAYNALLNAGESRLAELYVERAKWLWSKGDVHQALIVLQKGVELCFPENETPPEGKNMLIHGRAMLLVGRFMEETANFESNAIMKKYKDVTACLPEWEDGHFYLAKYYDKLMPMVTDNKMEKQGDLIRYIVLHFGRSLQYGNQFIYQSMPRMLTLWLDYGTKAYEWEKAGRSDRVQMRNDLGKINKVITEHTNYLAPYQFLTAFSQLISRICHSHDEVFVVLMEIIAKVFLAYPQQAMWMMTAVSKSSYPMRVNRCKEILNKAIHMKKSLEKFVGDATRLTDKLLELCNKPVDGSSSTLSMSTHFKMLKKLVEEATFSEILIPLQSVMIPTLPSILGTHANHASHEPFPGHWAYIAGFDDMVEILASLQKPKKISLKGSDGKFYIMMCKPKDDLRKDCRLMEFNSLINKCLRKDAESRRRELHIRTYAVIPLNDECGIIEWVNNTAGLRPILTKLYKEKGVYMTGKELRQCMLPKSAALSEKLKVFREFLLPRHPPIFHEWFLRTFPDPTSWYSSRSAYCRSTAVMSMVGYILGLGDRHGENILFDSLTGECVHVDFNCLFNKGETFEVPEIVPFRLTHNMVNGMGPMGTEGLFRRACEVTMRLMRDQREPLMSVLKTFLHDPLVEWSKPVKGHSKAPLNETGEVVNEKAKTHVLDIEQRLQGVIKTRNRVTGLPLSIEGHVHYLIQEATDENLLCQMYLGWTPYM

SN12C = assay: Growth inhibition of human SN12C cells assessed as cell growth at 10 uM incubated for 48 hrs by sulforhodamine B assay; type: functional; details: read-out: Activity
RXF 393 = assay: Growth inhibition of human RXF393 cells assessed as cell growth at 10 uM incubated for 48 hrs by sulforhodamine B assay; type: functional; details: RXF 393, 48 h, read-out: Activity
NCI/ADR-RES = assay: Growth inhibition of human NCI/ADR-RES cells assessed as cell growth at 10 uM incubated for 48 hrs by sulforhodamine B assay; type: functional; details: read-out: Activity
[3] = target: Serine/threonine-protein kinase ATR (Homo sapiens) (UniProt Q13535); assay: Inhibition of ATR in human U2OS cells assessed as reduction in hydroxyurea-induced Chk-1 phosphorylation at Ser345 residue preincubated for 1 hr followed by hydroxyurea challenge measured after 2 hrs by Western blot analysis; type: cell-based
BT-549 = assay: Growth inhibition of human BT549 cells assessed as cell growth at 10 uM incubated for 48 hrs by sulforhodamine B assay; type: functional; details: BT-549, 48 h, read-out: Activity
CCRF-CEM = assay: Growth inhibition of human CCRF-CEM cells assessed as cell growth at 10 uM incubated for 48 hrs by sulforhodamine B assay; type: functional; details: read-out: Activity
NCI-H460 = assay: Growth inhibition of human NCI-H460 cells assessed as cell growth at 10 uM incubated for 48 hrs by sulforhodamine B assay; type: functional; details: NCI-H460, 48 h, read-out: Activity
SF-295 = assay: Growth inhibition of human SF295 cells assessed as cell growth at 10 uM incubated for 48 hrs by sulforhodamine B assay; type: functional; details: SF-295, 48 h, read-out: Activity
SW-620 = assay: Growth inhibition of human SW620 cells assessed as cell growth at 10 uM incubated for 48 hrs by sulforhodamine B assay; type: functional; details: SW-620, 48 h, read-out: Activity
NCI-H226 = assay: Growth inhibition of human NCI-H226 cells assessed as cell growth at 10 uM incubated for 48 hrs by sulforhodamine B assay; type: functional; details: NCI-H226, 48 h, read-out: Activity
SR = assay: Growth inhibition of human SR cells assessed as cell growth at 10 uM incubated for 48 hrs by sulforhodamine B assay; type: functional; details: read-out: Activity
MDA-MB-231 = assay: Growth inhibition of human MDA-MB-231 cells assessed as cell growth at 10 uM incubated for 48 hrs by sulforhodamine B assay; type: functional; details: MDA-MB-231, 48 h, read-out: Activity
786-0 = assay: Growth inhibition of human 786-0 cells assessed as cell growth at 10 uM incubated for 48 hrs by sulforhodamine B assay; type: functional; details: 786-0, 48 h, read-out: Activity
[4] = target: Serine-protein kinase ATM (Homo sapiens) (UniProt Q13315); assay: Inhibition of ATM in human U2OS cells assessed as reduction in hydroxyurea-induced H2AX phosphorylation at Ser139 residue at 3 to 10 uM preincubated for 1 hr followed by hydroxyurea challenge measured after 2 hrs by Western blot analysis; type: cell-based
Malme-3M = assay: Growth inhibition of human MALME-3M cells assessed as cell growth at 10 uM incubated for 48 hrs by sulforhodamine B assay; type: functional; details: read-out: Activity
A549 = assay: Growth inhibition of human A549/ATCC cells assessed as cell growth at 10 uM incubated for 48 hrs by sulforhodamine B assay; type: functional; details: A549, 48 h, read-out: Activity
MCF7 = assay: Growth inhibition of human MCF7 cells assessed as cell growth at 10 uM incubated for 48 hrs by sulforhodamine B assay; type: functional; details: MCF7, 48 h, read-out: Activity
UO-31 = assay: Growth inhibition of human UO31 cells assessed as cell growth at 10 uM incubated for 48 hrs by sulforhodamine B assay; type: functional; details: UO-31, 48 h, read-out: Activity
A498 = assay: Growth inhibition of human A498 cells assessed as cell growth at 10 uM incubated for 48 hrs by sulforhodamine B assay; type: functional; details: A498, 48 h, read-out: Activity
ACHN = assay: Growth inhibition of human ACHN cells assessed as cell growth at 10 uM incubated for 48 hrs by sulforhodamine B assay; type: functional; details: read-out: Activity
UACC-257 = assay: Growth inhibition of human UACC257 cells assessed as cell growth at 10 uM incubated for 48 hrs by sulforhodamine B assay; type: functional; details: UACC-257, 48 h, read-out: Activity
HL-60(TB) = assay: Growth inhibition of human HL-60(TB) cells assessed as cell growth at 10 uM incubated for 48 hrs by sulforhodamine B assay; type: functional; details: HL-60, 48 h, read-out: Activity

SMILES	growth at 10 µM (NCI-H322M) [%]	growth at 10 µM (PC-3) [%]	growth at 10 µM (NCI-H522) [%]	growth at 10 µM (DU-145) [%]	growth at 10 µM (LOX IMVI) [%]	growth at 10 µM (MDA-MB-435) [%]	growth at 10 µM (U-251) [%]	growth at 10 µM (SF-539) [%]	inhibition [1]	growth at 10 µM (SF-268) [%]	growth at 10 µM (HOP-62) [%]	Ratio [2]	growth at 10 µM (SN12C) [%]	growth at 10 µM (RXF 393) [%]	growth at 10 µM (NCI/ADR-RES) [%]	inhibition [3]	growth at 10 µM (BT-549) [%]	growth at 10 µM (CCRF-CEM) [%]	growth at 10 µM (NCI-H460) [%]	growth at 10 µM (SF-295) [%]	also measured
CS(=O)(=NC#N)c1ccc(-c2cnc(N)c(C(=O)Nc3ccccc3)n2)cc1 (stereo not drawn)	78.6	90.2	86.8	75.6	66.5	87.7	68.5	69	inactive	87.7	97	58.1	78.8	71	96.9	Dose-dependent effect	73.4	79.9	83.9	99.2	growth at 10 µM (SW-620): 109%; growth at 10 µM (NCI-H226): 92%; growth at 10 µM (SR): 44%; growth at 10 µM (MDA-MB-231): 102%; growth at 10 µM (786-0): 45.5%; inhibition [4]: inactive; growth at 10 µM (Malme-3M): 127%; growth at 10 µM (A549): 63.1%; growth at 10 µM (MCF7): 45.5%; growth at 10 µM (UO-31): 48.1%; growth at 10 µM (A498): 76.1%; growth at 10 µM (ACHN): 51.4%; growth at 10 µM (UACC-257): 102%; growth at 10 µM (HL-60(TB)): 108%
C/S(=N\C#N)c1ccc(-c2cnc(N)c(C(=O)Nc3ccccc3)n2)cc1 (stereo not drawn)	71.3	86	77.2	80.3	77.8	84	93.2	85.7	inactive	88.4	110	40.1	82.4	62.9	108	Dose-dependent effect	83.5	83.5	87.4	114	growth at 10 µM (SW-620): 85.9%; growth at 10 µM (NCI-H226): 88.5%; growth at 10 µM (SR): 57.1%; growth at 10 µM (MDA-MB-231): 101%; growth at 10 µM (786-0): 59.5%; inhibition [4]: inactive; growth at 10 µM (Malme-3M): 80%; growth at 10 µM (A549): 85.4%; growth at 10 µM (MCF7): 75.7%; growth at 10 µM (UO-31): 49.1%; growth at 10 µM (A498): 86.3%; growth at 10 µM (ACHN): 54%; growth at 10 µM (UACC-257): 106%; growth at 10 µM (HL-60(TB)): 79.2%

Source: ChEMBL document CHEMBL4020759, “Sulfoximines as ATR inhibitors: Analogs of VE-821” (2017)
